Assay results as given in patent US9632075B2, “Prevention or attenuation of neuropathic pain by bile acids” (Metselex, Inc., priority 2011, dated 2017).

Legend:
Format in all cases: in vivo, rat
[1] = system: paw withdrawal threshold; test: von Frey testing for tactile hypersensitivity after SNL; conditions: for withdrawal threshold of the ipsilateral hindpaw: TUDCA 300 mg/kg i.p.
From the text: (§1) Rats were divided into two experimental groups: a group in which the L5 spinal nerve was ligated and cut, and a sham-operated control group. The left L5 spinal nerve was isolated, tightly ligated and cut distal to the ligation under isoflurane anesthesia (1.5%). The surgical procedure for the sham-operated group was identical to that of the SNL group, except that the L5 spinal nerve was not ligated or cut. General behavior of the rats was monitored before and after the surgery. Any rats showing difficulty elevating a hindpaw were discarded from the study.
(§2) Rats were treated with 5,7-dihydroxytryptamine (5,7-DHT: 100 μg/10 μl, intracisternal injection) to induce loss of RVM serotonergic neurons. Rats were randomly assigned to one of four groups for these experiments: (1) L5 SNL with 5,7-DHT; (2) L5 SNL with vehicle injection; (3) sham with 5,7-DHT; and (4) sham with vehicle. Injections were given ten days after surgery; animals receiving vehicle injections received sterile saline (10 μl, intracisternal injection). To prevent damage to noradrenergic (NE) neurons, the inventors pre-treated animals 30 minutes before 5,7-DHT and saline administration with desipramine (20 mg/kg i.p.), an inhibitor of neuronal NE reuptake. To test the effects of inhibiting apoptosis on SNL, the inventors administered a systemically active inhibitor of apoptosis, tauroursodeoxycholic acid (TUDCA) (300 mg/kg i.p. or saline prior to and after surgery. For each group, injections were given every-other day, starting 3 days prior to surgery and continuing until sacrifice. To confirm the efficacy of TUDCA, the inventors tested its effects on dexamethasone-induced apoptosis in thymus. Two TUDCA injections (300 mg/kg i.p.) were given: one to two days prior to dexamethasone (1 mg/kg i.p.) administration and one the day of dexamethasone administration. Control animals were given saline injections instead of TUDCA solution. Rats were killed one day after dexamethasone administration.
Mechanical sensitivity was determined by measuring the paw withdrawal threshold in response to the application of von Frey filaments, using the up-down method of Chaplan. In brief, rats were placed on a wire mesh surface, covered by an inverted plastic cage and allowed to habituate for 15 min. Filaments were then applied to the plantar surface of the hindpaw. If application of the filament evoked no response, the next-larger filament was applied; if application elicited withdrawal, the next-smaller filament was applied. This sequence was repeated until the largest filament was used or until four filaments were applied after the first withdrawal was noted. Withdrawal thresholds were measured prior to surgery and at 2-3 day intervals after surgery. In all cases, thresholds were measured bilaterally.

[2] = system: thymus; test: dexamethasone-induced apoptosis in thymus (caspase-3 labeling); conditions: TUDCA 300 mg/kg i.p., two injections; dexamethasone 1 mg/kg i.p.
Experimental: as §2, with “Rats were killed one day after dexamethasone administration.” left out

[3] = system: RVM glia; test: number of RVM glia after SNL (Nissl-stained tissue); conditions: SNL rats
From the text: as §1, §2
Conventional microscopy was used to collect images of the RVM for cell counting. An Olympus BX50 fluorescence microscope (Tokyo, Japan) equipped with filter sets designed to allow selective visualization of Cy2 and Cy3 was used. Microscopic images were collected with a Scion 1346 digital camera. Confocal images were collected using an Olympus FluoView FV1000 microscope (Tokyo, Japan). ImageJ 1.29 (developed at NIH and available at http://rsb.info.nih.gov/ij/) or Photoshop were used to adjust contrast and brightness in images. […]
stereological methods were used for quantification as described previously. […] The sampling interval thereafter was determined based on the number of sections within the RVM and was usually every sixth section. […]

[4] = system: RVM neurons; test: number of RVM neurons after spinal nerve ligation (SNL), stereological cell counting
From the text: as §1, §2
(§3) The RVM and spinal cord were sectioned using a freezing microtome (Leica, SM2400) at a nominal thickness of 50 μm. […]

[5] = system: RVM 5-HT neurons; test: number of RVM 5-HT (TPH-ir) neurons after SNL, stereological cell counting
From the text: as §1, §2, §3

## NCCc1c[nH]c2c(O)cc(O)cc12 [5,7-DHT, 5,7-dihydroxytryptamine]
[1]; 5,7-DHT 100 μg/10 μl intracisternal injection ten days after surgery
  mechanical hypersensitivity after SNL: partially reversed

## C[C@H](CCC(=O)NCCS(=O)(=O)O)[C@H]1CC[C@H]2[C@@H]3[C@@H](O)C[C@@H]4C[C@H](O)CC[C@]4(C)[C@H]3CC[C@]12C [TUDCA, tauroursodeoxycholic acid]
[2]
  caspase-3 labeling in thymus compared to dexamethasone alone: marked decrease
[1]; Day 4 post-SNL, vehicle 1.1±0.3 g
  withdrawal threshold of the ipsilateral hindpaw: 3.5 ± 0.5 g
[1]; Day 6 post-SNL, vehicle 1.3±0.2 g
  withdrawal threshold of the ipsilateral hindpaw: 4.0 ± 0.5 g
[1]; Day 8 post-SNL, vehicle 1.2±0.3 g
  withdrawal threshold of the ipsilateral hindpaw: 4.6 ± 1.1 g
[1]; Day 10 post-SNL, vehicle 1.2±0.2 g
  withdrawal threshold of the ipsilateral hindpaw: 5.2 ± 1.3 g
[1]; TUDCA 300 mg/kg i.p. every-other day
  SNL-induced mechanical hypersensitivity: partially reversed
[1]; one-to-three days after SNL, TUDCA
  tactile hypersensitivity one-to-three days after SNL: does not reduce hypersensitivity
[3]; TUDCA, contralateral, vehicle 80,086±2,899
  number of RVM glia contralateral after SNL: 60,437±4,315
[3]; TUDCA, ipsilateral, vehicle 85,541±2,972
  number of RVM glia ipsilateral after SNL: 62,306±3,736
[3]; contralateral, p<0.05
  RVM glia contralateral, fewer than vehicle: 25%
[3]; ipsilateral, p<0.05, n=7 TUDCA, n=6 vehicle
  RVM glia ipsilateral, fewer than vehicle: 27%
[4]; SNL rats, TUDCA 300 mg/kg i.p. every-other day, ipsilateral, vehicle 12,540±930
  number of RVM neurons ipsilateral to the lesion: 17,976±1,202
[4]; SNL rats, TUDCA 300 mg/kg i.p., contralateral, saline 16,949±1,074
  number of RVM neurons contralateral to SNL: 16,675±828
[4]; ipsilateral, p<0.05, n=8
  number of RVM neurons ipsilateral, higher than in vehicle-treated SNL rats: 43%
[5]; SNL rats, TUDCA 300 mg/kg i.p., contralateral
  number of RVM 5-HT neurons contralateral to SNL: 1,251±99
[5]; SNL rats, TUDCA 300 mg/kg i.p., ipsilateral, vehicle 1,043±118
  number of RVM 5-HT neurons ipsilateral to SNL: 1,353±96
[5]; ipsilateral, p<0.05, n=8
  number of RVM 5-HT neurons ipsilateral, higher than in vehicle-treated rats: 30%
